Measured values from patent publication US20110045101A1, “FUNGICIDAL SUBSTITUTED AZOLES” (E.I. Du Pont De Nemours and Company, priority 2009, published 2011).

What was measured:
Format in all cases: in vivo
Conditions in all cases: 200 ppm; 100 = 100% disease control, 0 = no control relative to controls
[1] = tested on: Puccinia recondita f. sp. tritici; test: Test I: wheat leaf rust on wheat seedlings, sprayed the day before inoculation, visual disease rating
Summary of the method: (§1)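 Compounds were dissolved in acetone (3% of final volume), then suspended in 50/50 acetone/water with 250 ppm Trem 014 surfactant and sprayed to run-off on test plants. A 200 ppm suspension equals 500 g/ha. Ratings are at 200 ppm unless flagged as 40 ppm.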

[2] = tested on: Puccinia recondita f. sp. tritici; test: Test H: wheat leaf rust, test suspension sprayed after inoculation of wheat seedlings, visual disease rating
Summary of the method: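 Wheat seedlings inoculated with P. recondita spores, held 24 h saturated at 20 °C, then 2 days in growth chamber at 20 °C; compound suspension (acetone/water with Trem 014) sprayed to run-off afterwards. Rated visually; 200 ppm (≈500 g/ha) unless marked *, which denotes 40 ppm.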

Septoria nodorum = test: Test F: wheat glume blotch on wheat seedlings, sprayed the day before inoculation, visual disease rating
Summary of the method: as §1

Septoria tritici = test: Test G: wheat leaf blotch on wheat seedlings, sprayed the day before inoculation, visual disease rating
Summary of the method: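 Spray to run-off, 200 ppm (≈500 g/ha; starred = 40 ppm), acetone/water 50/50 + 250 ppm Trem® 014. Spore inoculation +1 d. 24° C saturated 48 h → 20° C 19 d. Visual rating.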

[3] = tested on: Erysiphe graminis f. sp. tritici; test: Test J: wheat powdery mildew on wheat seedlings, sprayed the day before inoculation, visual disease rating
Summary of the method: as §1

Alternaria solani = test: Test D: tomato early blight, sprayed the day before inoculation, visual disease rating
Summary of the method: as §1

Botrytis cinerea = test: Test C: tomato Botrytis on tomato seedlings, sprayed the day before inoculation, visual disease rating
Summary of the method: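 Tomato seedlings sprayed to run-off with compound suspended in acetone/water with 250 ppm Trem 014 surfactant, at 200 ppm (≈500 g/ha) or 40 ppm where marked, one day before Botrytis cinerea inoculation. Disease rated visually.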

Compound	Test I disease control rating [1] [%]	Test H disease control rating [2] [%]	Test F disease control rating (Septoria nodorum) [%]	Test G disease control rating (Septoria tritici) [%]	Test J disease control rating [3] [%]	Test D disease control rating (Alternaria solani) [%]	Test C disease control rating (Botrytis cinerea) [%]
CCOc1ccc(F)c(-c2c(Cl)ncn2-c2cccc(F)c2)c1F [compound 661]	100	0	87	99	100	99	99
CCOc1ccc(F)c(-c2c(Cl)nc(Br)n2-c2ccc(Cl)cc2)c1F [compound 662]	98	0	100	99	100	99	100
CCOc1ccc(F)c(-c2c(Cl)nc(Br)n2-c2cccc(F)c2)c1F [compound 663]	99	54	99	99	100	99	100
CCOc1ccc(F)c(-c2c(Cl)nc(Cl)n2-c2ccc(Cl)cc2)c1F [compound 664]	97	46	96	99	100	99	100
Cc1nc(Cl)c(-c2c(F)cccc2F)n1-c1ccc(Cl)nc1 [compound 666]	100	100	99	99	100	100	100
COc1cc(F)c(-c2c(Cl)nc(Cl)n2Cc2ccc(Cl)nc2)c(F)c1 [compound 667]	97	8	100	99	76	100	100
COc1cc(F)c(-c2c(Cl)nc(Cl)n2Cc2ccc(Cl)nc2)c(F)c1Cl [compound 668]	85	0	91	99	96	99	100
COc1cc(F)c(-c2c(Cl)ncn2Cc2ccc(Cl)nc2)c(F)c1 [compound 669]	98	73	99	99	0	100	100
COc1cc(F)c(-c2c(Cl)nc(Br)n2Cc2ccc(Cl)nc2)c(F)c1 [compound 670]	98	0	100	98	94	100	100
COc1cc(F)c(-c2c(Cl)nc(C)n2Cc2ccc(C)nc2)c(F)c1 [compound 671]	78	17	92	95	0	100	99
COc1cc(F)c(-c2c(O)nc(C)n2-c2ccc(Cl)cc2)c(F)c1 [compound 672]	0	0	0	87	0	0	96
COc1cc(F)c(-c2c(Cl)nc(Cl)n2-c2ccc(NC(C)=O)nc2)c(F)c1 [compound 673]	100	9	99	99	90	100	99
